This is an account of results in patent US20150065440A1 (Progen Pharmaceuticals Limited, priority 2007, published 2015).

Counter-ions that a name gives are not always drawn. Like-named read-outs stand apart in the source and are kept apart here.

The subject of assay [1] is pooled normal human plasma. Nature of the assay: Anticoagulant activity, APTT. Particulars: 0.1 mg/mL in normal pooled human plasma. How it is done: APTT measurements were performed on a STAGO STA-Compact Coagulation Analyser using standard protocols according to the manufacturer's instructions. Unfractionated heparin (UFH) was used as a control.
The target in a further assay is FGF-2 (Homo sapiens, UniProt P09038). In words: Growth factor binding assay (SPR solution affinity), FGF-2. As to conditions: SPR, HBS-EP buffer containing 0.3 M NaCl, 25° C.; read-out: Kd FGF-2. How it is done:
(§1) Binding affinities of compounds for the growth factors FGF-1, FGF-2 and VEGF were measured using a surface plasmon resonance (SPR) based solution affinity assay.^9 Heparin-coated sensorchips used for this assay were prepared via immobilisation of biotinylated BSA-heparin on a streptavidin-coated sensorchip, or via aldehyde coupling using either adipic acid dihydrazide or 1,4-diaminobutane.^9 For each Kd measurement, solutions were prepared containing a fixed concentration of protein and varying concentrations of the ligand in buffer. Ligands binding to FGF-1 and VEGF were measured in HBS-EP buffer (10 mM HEPES, pH 7.4, 150 mM NaCl, 3.0 mM EDTA and 0.005% (v/v) polysorbate 20), while binding to FGF-2 was measured in HBS-EP buffer containing 0.3 M NaCl. Prior to injection, samples were maintained at 4° C. to maximise protein stability. For each assay mixture, 50-200 μL of solution was injected at 5-40 μL/min and the relative binding response measured. All surface binding experiments were performed at 25° C. The surface was regenerated by injection of 40 μL of 4M NaCl at 40 μL/min, followed by injection of 40 μL of buffer at 40 μL/min.
(§2) Sensorgram data were analysed using the BIAevaluation software (BIAcore) and Kd values determined as previously described.^9 Where Kd values were measured in duplicate, the values represent the average of the duplicate measurements.

Assay [2] has as its target T1, recombinant human heparanase (Homo sapiens, UniProt Q9Y251).
T1 sequence (Q9Y251 158-543 limits assumed): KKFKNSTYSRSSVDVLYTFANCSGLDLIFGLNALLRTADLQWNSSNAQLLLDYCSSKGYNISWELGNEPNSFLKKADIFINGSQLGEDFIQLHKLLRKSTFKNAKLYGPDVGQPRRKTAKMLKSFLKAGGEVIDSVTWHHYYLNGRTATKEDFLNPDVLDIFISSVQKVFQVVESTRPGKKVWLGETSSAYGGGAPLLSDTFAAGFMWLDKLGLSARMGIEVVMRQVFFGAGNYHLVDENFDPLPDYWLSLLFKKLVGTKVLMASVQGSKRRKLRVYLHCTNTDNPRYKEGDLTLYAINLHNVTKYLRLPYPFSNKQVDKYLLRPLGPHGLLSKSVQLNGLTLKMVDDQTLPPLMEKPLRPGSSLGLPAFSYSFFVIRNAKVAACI
T1 sequence (Q9Y251 36-109 limits assumed): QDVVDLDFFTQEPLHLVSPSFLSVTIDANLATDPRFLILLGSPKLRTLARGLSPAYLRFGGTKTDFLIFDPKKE
In words: Heparanase inhibition assay (fondaparinux cleavage, WST-1). Particulars: read-out: Ki Heparanase; IC50 converted into Ki; fondaparinux 100 μM, pH 5.0. A general note: Tetrazolium assays rely on reduction of a dye to a coloured formazan, in cell work by metabolically active cells.

Assay [3] has as its system normal pooled human plasma. In words: Anticoagulant activity, Heptest. Particulars: 0.1 mg/mL in normal pooled human plasma.
For a further assay, the target named is FGF-1 (Homo sapiens, UniProt P05230). Nature of the assay: Growth factor binding assay (SPR solution affinity), FGF-1. How it is done:
as §1, §2

The target of another assay is T2, VEGF (Homo sapiens, UniProt P15692).
T2 sequence (P15692 207-395): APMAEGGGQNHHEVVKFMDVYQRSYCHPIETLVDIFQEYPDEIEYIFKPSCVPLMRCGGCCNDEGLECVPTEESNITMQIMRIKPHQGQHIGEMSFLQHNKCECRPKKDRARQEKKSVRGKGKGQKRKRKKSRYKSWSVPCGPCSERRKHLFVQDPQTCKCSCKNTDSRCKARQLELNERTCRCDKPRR
In words: Growth factor binding assay (SPR solution affinity), VEGF. Particulars: HBS-EP buffer, 25° C. The method, then: as §1, §2

The next assay has as its system RSV. Nature of the assay: Viral plaque number-reduction assay, RSV. Particulars: human respiratory syncytial virus, read-out: RSV IC50. How it is done: (§3) African green monkey kidney (GMK AH1) cells^46 were cultured in Eagle's minimum essential medium (EMEM) supplemented with 2% calf serum, 0.05% Primaton RL substance (Kraft Inc., Norwich, USA) and antibiotics. Human epidermoid carcinoma (HEp-2) cells were cultured in Dulbecco's modified EMEM (DMEM) supplemented with 10% fetal calf serum and antibiotics. […] The RSV strain A-2^50 was used. The RSV stock was prepared as described by Hallak et al.^51 and stored at −70° C. in the presence of 40% sucrose^52.
(§4) The viral infectivity (the plaque number-reduction) assay and the plaque size-reduction assay were carried out as described previously^17. […] Subsequently, the cells were washed with 2 mL of EMEM and overlaid with 1% methylcellulose solution in EMEM. The plaques were visualized by staining with crystal violet solution after 2 (HSV-2) or 3 (HSV-1) days of incubation at 37° C. […] When the compounds were screened for anti-HSV or anti-RSV activity, mixtures of 200 PFU of the virus and the test compound (100 μg/mL) in serum-free EMEM were incubated for 10 min at room temperature before addition to cells and during the entire period of viral infection of cells and the development of viral plaques. In the plaque size-reduction assay, the compounds were added to cells (in methylcellulose overlay medium) after 2 h period of virus infection of cells in the absence of the inhibitor. After 2-3 days of incubation at 37° C., the viral plaques were visualized by staining the cells with 1% solution of crystal violet. For each compound tested, the images of twenty neighboring plaques were captured using a Leica DC300 digital camera attached to a Leitz-Wetzlar Diavert microscope. The area of each plaque was determined using IM500 image software (Leica). Similar protocols were used for RSV, except that the assays were performed in HEp-2 cells and DMEM supplemented with 2% heat-inactivated fetal calf serum was used instead of EMEM.

Another assay concerns HSV-2. In words: Viral plaque number-reduction assay, HSV-2. As to conditions: Human alphaherpesvirus 2, read-out: HSV-2 IC50. How it is done: as §3, §4
Where [4] appears, read: SPR, HBS-EP buffer, 25° C., read-out: Kd FGF-1.

FGF-2, sequence (P09038 143-288, species assumed): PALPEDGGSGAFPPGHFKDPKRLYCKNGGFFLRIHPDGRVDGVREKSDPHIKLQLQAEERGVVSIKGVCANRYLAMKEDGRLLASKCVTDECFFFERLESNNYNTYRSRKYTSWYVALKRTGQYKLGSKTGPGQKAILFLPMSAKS
FGF-1, sequence (P05230 whole entry, species assumed): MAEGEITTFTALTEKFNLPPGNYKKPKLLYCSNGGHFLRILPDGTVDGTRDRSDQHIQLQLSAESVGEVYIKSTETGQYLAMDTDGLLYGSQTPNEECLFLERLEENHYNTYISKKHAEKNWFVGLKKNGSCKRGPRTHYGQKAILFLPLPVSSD

Take `CC(C)CCCC(C)C1CCC2C3CCC4CC(OCc5cn(CCCOC6OC(COS(=O)(=O)O)C(OS(=O)(=O)O)C(OS(=O)(=O)O)C6OC6OC(COS(=O)(=O)O)C(OS(=O)(=O)O)C(OC7OC(COS(=O)(=O)O)C(OS(=O)(=O)O)C(OS(=O)(=O)O)C7OS(=O)(=O)O)C6OS(=O)(=O)O)nn5)CCC4(C)C3CCC12C` [Compound 48, 3-{4-(Cholestan-3β-yl-oxymethyl)-[1,2,3]triazol-1-yl}propyl 2,3,4,6-tetra-O-sodium sulfonato-α-D-mannopyranosyl-(1→3)-2,4,6-tri-O-sodium sulfonato-α-D-mannopyranosyl-(1→2)-3,4,6-tri-O-sodium sulfonato-α-D-mannopyranoside]: the APTT in assay [1] turned out to be 73.3 s. Also, the equilibrium dissociation constant (Kd) (in general, the free concentration of one partner at which half of the binding sites on the other are occupied at equilibrium, for simple one-to-one binding) on FGF-2 worked out at 480 ± 40 nM; at FGF-1 (setting [4]), 22.6 ± 1 nM; at VEGF it was 460 ± 30 nM. The Ki (commonly the equilibrium dissociation constant of an inhibitor or competing ligand from its target) in assay [2] came out at 8.5 ± 0.14 nM. The molecule also gave a Heptest in assay [3] of 33.1 s.

Turning to `CC(C)CCCC(C)C1CCC2C3CCC4CC(OCc5cn(C6OC(COS(=O)(=O)O)C(OC7OC(COS(=O)(=O)O)C(OC8OC(COS(=O)(=O)O)C(OS(=O)(=O)O)C(OS(=O)(=O)O)C8OS(=O)(=O)O)C(OS(=O)(=O)O)C7OS(=O)(=O)O)C(OS(=O)(=O)O)C6OS(=O)(=O)O)nn5)CCC4(C)C3CCC12C` [Compound 76, 4-(Cholestan-3β-yl-oxymethyl)[1,2,3]triazol-1-yl 2,3,4,6-tetra-O-sodium sulfonato-α-D-glucopyranosyl-(1→4)-2,3,6-tri-O-sodium sulfonato-α-D-glucopyranosyl-(1→4)-1-deoxy-2,3,6-tri-O-sodium sulfonato-β-D-glucopyranoside], the APTT in assay [1] is 61.2 s. Moreover, the Kd is 610 ± 60 nM at FGF-2, 50 ± 8 nM on FGF-1 (setting [4]) and 790 ± 230 nM at VEGF. The Ki in assay [2] was found to be 16 ± 4 nM. In assay [3], this molecule had a Heptest of 30.2 s.

In the case of `CC(=O)OC1CC2C(CCC3CC(OS(=O)(=O)O)CCC32C)C2CCC(C(C)CCC(=O)NC3OC(COS(=O)(=O)O)C(OC4OC(COS(=O)(=O)O)C(OC5OC(COS(=O)(=O)O)C(OC6OC(COS(=O)(=O)O)C(OS(=O)(=O)O)C(OS(=O)(=O)O)C6OS(=O)(=O)O)C(OS(=O)(=O)O)C5OS(=O)(=O)O)C(OS(=O)(=O)O)C4OS(=O)(=O)O)C(OS(=O)(=O)O)C3OS(=O)(=O)O)C12C` [Compound 83, N-(2,3,4,6-tetra-O-sodiumsulfonato-α-D-glucopyranosyl-(1→4)-2,3,6-tri-O-sodiumsulfonato-α-D-glucopyranosyl-(1→4)-2,3,6-tri-O-sodiumsulfonato-α-D-glucopyranosyl-(1→4)-2,3,6-tri-O-sodiumsulfonato-β-D-glucopyranosyl)-4-((3R,10S,12S,13R)-3-O-sodiumsulfonato-12-O-acetyl-10,13-dimethylhexadecahydro-1H-cyclopenta[a]phenanthren-17-yl)pentanamide], the APTT in assay [1] is on record as 41.0 s. Further, the Kd was 50 ± 4 nM on FGF-2, 1.25 ± 0.07 nM at FGF-1 (setting [4]) and 7.95 ± 0.07 nM at VEGF. Further, the Ki in assay [2] was determined as 20 ± 5 nM. Further, in assay [3], the Heptest worked out at 26.8 s.

For the molecule `CC(C)CCCC(C)C1CCC2C3CCC4CC(OC5OC(COS(=O)(=O)O)C(OC6OC(COS(=O)(=O)O)C(OC7OC(COS(=O)(=O)O)C(OS(=O)(=O)O)C(OS(=O)(=O)O)C7OS(=O)(=O)O)C(OS(=O)(=O)O)C6OS(=O)(=O)O)C(OS(=O)(=O)O)C5OS(=O)(=O)O)CCC4(C)C3CCC12C` [Compound 87, 3β-Cholestanyl 2,3,4,6-tetra-O-sodium sulfonato-α-D-glucopyranosyl-(1→4)-2,3,6-tri-O-sodium sulfonato-α-D-glucopyranosyl-(1→4)-2,3,6-tri-O-sodium sulfonato-β-D-glucopyranoside], the APTT in assay [1] is 51.6 s. In addition, the Kd was determined as 547 ± 50 nM on FGF-2, 24.8 ± 2.3 nM at FGF-1 (setting [4]) and 190 ± 60 nM on VEGF. For the same molecule, the inhibition constant (Ki) in assay [2] turned out to be 9.1 ± 2.5 nM. The Heptest in assay [3] is recorded as 29.2 s.

Turning to `CC(C)CCC[C@@H](C)[C@H]1CC[C@H]2[C@@H]3CCC4CC(O[C@@H]5O[C@H](COS(=O)(=O)O)[C@@H](O[C@@H]6O[C@H](COS(=O)(=O)O)[C@H](OS(=O)(=O)O)[C@H](OS(=O)(=O)O)[C@H]6OS(=O)(=O)O)[C@H](OS(=O)(=O)O)[C@H]5OS(=O)(=O)O)CC[C@]4(C)[C@H]3CC[C@]12C` (stereo partly drawn) [Compound 112, 3′-Cholestanyl 2,3,4,6-tetra-O-sulfo-β-D-galactopyranosyl-(1→4)-2,3,6-tri-O-sulfo-β-D-glucopyranoside, heptasodium salt], the APTT in assay [1] is 38.9 s. The Kd on FGF-2 came out at 2100 ± 300 nM; on FGF-1, 900 ± 150 nM; at VEGF it was 430 ± 140 nM. The results for the IC50 with RSV and in the assay on HSV-2 were 2.4 µg/mL and 0.45 µg/mL, respectively. The Heptest in assay [3] is 25.4 s.
